Measurements taken from PubChem BioAssay AID1963426 (Molecular Pharmacology Branch, DTP, NCI, 2024).

System: 186277-243-T-J2-PDC complex spheroid growth, % test/control
Experiment: Anticancer human tumor 186277-243-T-J2-PDC patient-derived colon adenocarcinoma cell line growth inhibition [Asc]
Conditions: for IC50: curve of first compound; for viability, T/C: stronger effect = lower value
In short: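 Tumor cells were grown as complex spheroids with human endothelial cells (HUVEC) and human mesenchymal stem cells as stroma. Agents were tested alone and in combination, in half-log steps down from the clinical Cmax, or from 10 microM where Cmax was unknown.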

[1] = second compound 0.1 µM, first compound 0.00316 µM
[2] = second compound 0.1 µM, first compound 0.01 µM
[3] = second compound 0.1 µM, first compound 0.0316 µM
[4] = second compound 0.1 µM, first compound 0.1 µM
[5] = second compound 0.316 µM, first compound 0.00316 µM
[6] = second compound 0.316 µM, first compound 0.01 µM
[7] = second compound 0.316 µM, first compound 0.0316 µM
[8] = second compound 0.316 µM, first compound 0.1 µM
[9] = second compound 1 µM, first compound 0.00316 µM
[10] = second compound 1 µM, first compound 0.01 µM
[11] = second compound 1 µM, first compound 0.0316 µM
[12] = second compound 1 µM, first compound 0.1 µM
[13] = second compound 3.16 µM, first compound 0.00316 µM
[14] = second compound 3.16 µM, first compound 0.01 µM
[15] = second compound 3.16 µM, first compound 0.0316 µM
[16] = second compound 3.16 µM, first compound 0.1 µM
[17] = second compound 10 µM, first compound 0.00316 µM
[18] = second compound 10 µM, first compound 0.01 µM
[19] = second compound 10 µM, first compound 0.0316 µM
[20] = second compound 10 µM, first compound 0.1 µM
[21] = second compound 0.1 µM, first compound 0.316 µM
[22] = second compound 0.1 µM, first compound 1 µM
[23] = second compound 0.316 µM, first compound 0.316 µM
[24] = second compound 0.316 µM, first compound 1 µM
[25] = second compound 1 µM, first compound 0.316 µM
[26] = second compound 1 µM, first compound 1 µM
[27] = second compound 3.16 µM, first compound 0.316 µM
[28] = second compound 3.16 µM, first compound 1 µM
[29] = second compound 10 µM, first compound 0.316 µM
[30] = second compound 10 µM, first compound 1 µM
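Note: spheroids exposed to agents for 7 days.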
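Throughout, for viability, T/C: 100% = DMSO vehicle control wells.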

**Q.** What does the source list for `Cc1nc(N2CCC3(CC2)COC(C)C3N)c(CO)nc1Sc1ccnc(N)c1Cl` (stereo not given) + CNC(C)C(=O)NC1CN(S(=O)(=O)c2cccc(S(=O)(=O)N3CCC4CCC(C(=O)NC(c5ccccc5)c5ccccc5)N4C(=O)C(NC(=O)C(C)NC)C3)c2)CCC2CCC(C(=O)NC(c3ccccc3)c3ccccc3)N2C1=O?
**A.** IC50 (second compound 0.01 µM): > 3 µM; IC50 (second compound 0.0316 µM): > 3 µM; IC50 (second compound 0.1 µM): > 3 µM; IC50 (second compound 0.316 µM): > 3 µM; IC50 (second compound 1 µM): > 3 µM; viability, T/C (second compound 0.01 µM, first compound 0.00949 µM): 106%; viability, T/C (second compound 0.01 µM, first compound 0.03 µM): 102%; viability, T/C (second compound 0.01 µM, first compound 0.0949 µM): 112%; viability, T/C (second compound 0.01 µM, first compound 0.3 µM): 93%; viability, T/C (second compound 0.01 µM, first compound 0.949 µM): 97.8%; viability, T/C (second compound 0.01 µM, first compound 3 µM): 106%; viability, T/C (second compound 0.0316 µM, first compound 0.00949 µM): 98.8%; viability, T/C (second compound 0.0316 µM, first compound 0.03 µM): 111%; viability, T/C (second compound 0.0316 µM, first compound 0.0949 µM): 107%; viability, T/C (second compound 0.0316 µM, first compound 0.3 µM): 91.6%; viability, T/C (second compound 0.0316 µM, first compound 0.949 µM): 104%; viability, T/C (second compound 0.0316 µM, first compound 3 µM): 104%; viability, T/C (second compound 0.1 µM, first compound 0.00949 µM): 107%; viability, T/C (second compound 0.1 µM, first compound 0.03 µM): 101%; viability, T/C (second compound 0.1 µM, first compound 0.0949 µM): 103%; viability, T/C (second compound 0.1 µM, first compound 0.3 µM): 97.7%; viability, T/C (second compound 0.1 µM, first compound 0.949 µM): 102%; viability, T/C (second compound 0.1 µM, first compound 3 µM): 119%; viability, T/C (second compound 0.316 µM, first compound 0.00949 µM): 96%; viability, T/C (second compound 0.316 µM, first compound 0.03 µM): 104%; viability, T/C (second compound 0.316 µM, first compound 0.0949 µM): 106%; viability, T/C (second compound 0.316 µM, first compound 0.3 µM): 103%; viability, T/C (second compound 0.316 µM, first compound 0.949 µM): 101%; viability, T/C (second compound 0.316 µM, first compound 3 µM): 100%; viability, T/C (second compound 1 µM, first compound 0.00949 µM): 112%; viability, T/C (second compound 1 µM, first compound 0.03 µM): 110%; viability, T/C (second compound 1 µM, first compound 0.0949 µM): 99.6%; viability, T/C (second compound 1 µM, first compound 0.3 µM): 102%; viability, T/C (second compound 1 µM, first compound 0.949 µM): 105%; viability, T/C (second compound 1 µM, first compound 3 µM): 101%

**Q.** How did the IC50 (second compound 0.1 µM) turn out when `Cn1ncnc1[C@H]1c2n[nH]c(=O)c3cc(F)cc(c23)N[C@@H]1c1ccc(F)cc1` + Cc1c(S(C)(=O)=O)c(-c2cc(F)cc(N3CCN(c4ccc(NS(=O)(=O)c5ccc(NC(CCN6CCC(C(=O)OCCCP(=O)(O)O)CC6)CSc6ccccc6)c(S(=O)(=O)C(F)(F)F)c5)cc4)CC3)c2)c(-c2ccc(Cl)cc2)n1C(C)C was run?
**A.** > 0.1 µM

**Q.** And the IC50 (second compound 0.316 µM)?
**A.** > 0.1 µM

**Q.** And the IC50 (second compound 1 µM)?
**A.** > 0.1 µM

**Q.** What about the IC50 (second compound 3.16 µM) of the same compound?
**A.** > 0.1 µM

**Q.** What about the IC50 (second compound 10 µM) of the same compound?
**A.** 0.075 µM

**Q.** And the viability, T/C (second compound 0.1 µM, first compound 0.000316 µM)?
**A.** 98.4%

**Q.** What about the viability, T/C (second compound 0.1 µM, first compound 0.001 µM) of the same compound?
**A.** 85.5%

**Q.** And the viability, T/C [1]?
**A.** 101%

**Q.** And the viability, T/C [2]?
**A.** 101%

**Q.** What about the viability, T/C [3] of the same compound?
**A.** 108%

**Q.** And the viability, T/C [4]?
**A.** 99.1%

**Q.** What about the viability, T/C (second compound 0.316 µM, first compound 0.000316 µM) of the same compound?
**A.** 111%

**Q.** And the viability, T/C (second compound 0.316 µM, first compound 0.001 µM)?
**A.** 95.5%

**Q.** And the viability, T/C [5]?
**A.** 114%

**Q.** And the viability, T/C [6]?
**A.** 111%

**Q.** And the viability, T/C [7]?
**A.** 98.3%

**Q.** What about the viability, T/C [8] of the same compound?
**A.** 86.8%

**Q.** And the viability, T/C (second compound 1 µM, first compound 0.000316 µM)?
**A.** 100%

**Q.** And the viability, T/C (second compound 1 µM, first compound 0.001 µM)?
**A.** 103%

**Q.** What about the viability, T/C [9] of the same compound?
**A.** 103%

**Q.** And the viability, T/C [10]?
**A.** 91.5%

**Q.** And the viability, T/C [11]?
**A.** 70%

**Q.** What about the viability, T/C [12] of the same compound?
**A.** 63.8%

**Q.** What about the viability, T/C (second compound 3.16 µM, first compound 0.000316 µM) of the same compound?
**A.** 106%

**Q.** What about the viability, T/C (second compound 3.16 µM, first compound 0.001 µM) of the same compound?
**A.** 99%

**Q.** And the viability, T/C [13]?
**A.** 113%

**Q.** What about the viability, T/C [14] of the same compound?
**A.** 97.9%

**Q.** And the viability, T/C [15]?
**A.** 66%

**Q.** And the viability, T/C [16]?
**A.** 56.1%

**Q.** And the viability, T/C (second compound 10 µM, first compound 0.000316 µM)?
**A.** 95.4%

**Q.** What about the viability, T/C (second compound 10 µM, first compound 0.001 µM) of the same compound?
**A.** 95.9%

**Q.** And the viability, T/C [17]?
**A.** 116%

**Q.** What about the viability, T/C [18] of the same compound?
**A.** 96.1%

**Q.** What about the viability, T/C [19] of the same compound?
**A.** 70.5%

**Q.** And the viability, T/C [20]?
**A.** 43.2%

**Q.** Which results are given for `O=C(c1cc(Cc2n[nH]c(=O)c3ccccc23)ccc1F)N1CCN(C(=O)C2CC2)CC1` + Cc1c(S(C)(=O)=O)c(-c2cc(F)cc(N3CCN(c4ccc(NS(=O)(=O)c5ccc(NC(CCN6CCC(C(=O)OCCCP(=O)(O)O)CC6)CSc6ccccc6)c(S(=O)(=O)C(F)(F)F)c5)cc4)CC3)c2)c(-c2ccc(Cl)cc2)n1C(C)C?
**A.** IC50 (second compound 0.1 µM): > 10 µM; IC50 (second compound 0.316 µM): > 10 µM; IC50 (second compound 1 µM): 7.98 µM; IC50 (second compound 3.16 µM): 4.39 µM; IC50 (second compound 10 µM): 4.74 µM; viability, T/C [3]: 96.9%; viability, T/C [4]: 87.8%; viability, T/C [21]: 99.3%; viability, T/C [22]: 114%; viability, T/C (second compound 0.1 µM, first compound 3.16 µM): 103%; viability, T/C (second compound 0.1 µM, first compound 10 µM): 91.8%; viability, T/C [7]: 89.1%; viability, T/C [8]: 101%; viability, T/C [23]: 96.2%; viability, T/C [24]: 104%; viability, T/C (second compound 0.316 µM, first compound 3.16 µM): 86.3%; viability, T/C (second compound 0.316 µM, first compound 10 µM): 65.8%; viability, T/C [11]: 99.7%; viability, T/C [12]: 101%; viability, T/C [25]: 96.2%; viability, T/C [26]: 96.5%; viability, T/C (second compound 1 µM, first compound 3.16 µM): 86.7%; viability, T/C (second compound 1 µM, first compound 10 µM): 40.7%; viability, T/C [15]: 96%; viability, T/C [16]: 93.5%; viability, T/C [27]: 109%; viability, T/C [28]: 93%; viability, T/C (second compound 3.16 µM, first compound 3.16 µM): 60.5%; viability, T/C (second compound 3.16 µM, first compound 10 µM): 24%; viability, T/C [19]: 92.6%; viability, T/C [20]: 95.1%; viability, T/C [29]: 96.5%; viability, T/C [30]: 88.9%; viability, T/C (second compound 10 µM, first compound 3.16 µM): 67.6%; viability, T/C (second compound 10 µM, first compound 10 µM): 17.9%

**Q.** What does the source list for `O=C(c1ccc(F)c(F)c1Nc1ccc(I)cc1F)N1CC(O)([C@@H]2CCCCN2)C1` + Cc1c(S(C)(=O)=O)c(-c2cc(F)cc(N3CCN(c4ccc(NS(=O)(=O)c5ccc(NC(CCN6CCC(C(=O)OCCCP(=O)(O)O)CC6)CSc6ccccc6)c(S(=O)(=O)C(F)(F)F)c5)cc4)CC3)c2)c(-c2ccc(Cl)cc2)n1C(C)C?
**A.** IC50 (second compound 0.1 µM): 0.0934 µM; IC50 (second compound 0.316 µM): 0.0733 µM; IC50 (second compound 1 µM): 0.0659 µM; IC50 (second compound 3.16 µM): 0.0578 µM; IC50 (second compound 10 µM): 0.052 µM; viability, T/C [1]: 95.5%; viability, T/C [2]: 92.4%; viability, T/C [3]: 107%; viability, T/C [4]: 47%; viability, T/C [21]: 9.22%; viability, T/C [22]: 4.73%; viability, T/C [5]: 101%; viability, T/C [6]: 97.8%; viability, T/C [7]: 88.8%; viability, T/C [8]: 35.7%; viability, T/C [23]: 5.96%; viability, T/C [24]: 2.79%; viability, T/C [9]: 102%; viability, T/C [10]: 99.2%; viability, T/C [11]: 103%; viability, T/C [12]: 20.7%; viability, T/C [25]: 2.79%; viability, T/C [26]: 1.09%; viability, T/C [13]: 93.5%; viability, T/C [14]: 93.1%; viability, T/C [15]: 94.7%; viability, T/C [16]: 10.2%; viability, T/C [27]: 1.13%; viability, T/C [28]: 0.48%; viability, T/C [17]: 88.1%; viability, T/C [18]: 93.5%; viability, T/C [19]: 82%; viability, T/C [20]: 7.98%; viability, T/C [29]: 4.2%; viability, T/C [30]: 0.52%
